Assay: gradient 5% acetonitrile 3 min, to 50% in 2 min, to 85% in 15 min, held 3 min, 100 µL/min
Settings: column: Zorbax Extend-C18 2.1 x 50 mm; eluents: water / acetonitrile, 0.1% formic acid
How it was run: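 Retention time was recorded from adduct peaks, which were picked computationally and each inspected manually. Pure standards ran in mixtures of ~100 molecules on HPLC coupled to a quadrupole time-of-flight mass spectrometer, in positive and negative ionization mode, through a Zorbax Extend-C18 column (2.1 × 50 mm, 1.8 μm) at 100 μL/min. Eluents were water and acetonitrile, each with 0.1% formic acid.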

| Compound | RP-LC retention time [s] |
| --- | --- |
| CCc1cc(=O)n(CC(=O)NCCC2=CCCCC2)c(N)n1 | 642 |
| Cc1ccc(S(=O)(=O)N2CCC(n3cnnc3C)CC2)cc1C | 704 |
| COc1ccc(-c2cn3c(CC(=O)Nc4cc(C)on4)csc3n2)cc1OC | 664 |
| O=C(O)c1nnn(-c2ccc3c(c2)OCO3)c1-c1cccnc1 | 602 |
| COc1cccc(NS(=O)(=O)c2cc(-c3nc(C)c(C(=O)N4CCCC4)s3)cs2)c1 | 844 |
| Cc1ccc2c(c1)N(Cc1nc(-c3ccc(F)cc3)no1)C(=O)CO2 | 1060 |
| CCc1ccc(-n2nc(N3CCCC(C(=O)NCc4cccc(F)c4)C3)ccc2=O)cc1 (stereo unspecified) | 899 |
| Cc1sc(NC(=O)c2ccco2)nc1-c1ccc2c(c1)NC(=O)CO2 | 770 |
| COc1cc(NC(=O)Cn2c(N3CCOCC3)nc(C)cc2=O)cc(OC)c1 | 655 |
| COc1ccc(-n2c(=O)n(C)c(=O)c3cc(C(=O)NCc4cccc(OC)c4)cnc32)cc1 | 833 |
| COc1ccc(NC(=O)N2CCC(c3nc4cccnc4n3C)C2)cc1 (stereo unspecified) | 617 |
| Cc1cc(Cl)ccc1OCc1nc2c3ccccc3ncn2n1 | 1060 |
| COc1ccc(NC(=O)Cn2nc3cc(C)nc(N4CCCC4)n3c2=O)cc1 | 709 |
| O=C(NC1CCCCC1)C1CCCN(c2nnc3ccc(Cl)cn23)C1 (stereo unspecified) | 778 |
| CC(C)Cc1cc(-c2nn3c(-c4ccc(F)cc4)nnc3s2)n[nH]1 | 1010 |
| Cc1sc(-c2nnc(C3CC3)o2)cc1NC(=O)c1cccc(N(C)C)c1 | 896 |
| CCc1noc(C2(NC(=O)c3cccc(F)c3)CCCCC2)n1 | 949 |
| O=C(Cn1ncc2c3ccccc3n(Cc3ccccc3)c2c1=O)N1CCN(c2ncccn2)CC1 | 902 |
| O=C(C1=CN(c2ccc(Br)cc2)c2ccccc2S1(=O)=O)N1CCCC1 | 838 |
| Cc1ccc(NC(=O)N2CCCC(Cn3cnc4cccnc43)C2)cc1F (stereo unspecified) | 718 |
| CCCN1C(=O)COc2cc(-c3noc(C(=O)N4CCN(c5cccc(Cl)c5)CC4)n3)ccc21 | 1230 |
| O=C1CC(c2noc(-c3cccc(OC(F)(F)F)c3)n2)CN1c1ccc(Cl)cc1 (stereo unspecified) | 1210 |
| CN1[C@@H]2CC[C@H]1CC(OC(=O)C(CO)c1ccccc1)C2 (stereo partly specified) | 613 |
| CCOc1ccc(NC(=O)Cn2cnc3nc(N4CCC(C(=O)NC5CC5)CC4)sc3c2=O)cc1 | 675 |
| N#Cc1ccc(C(=O)NCCn2c(C(F)(F)F)nc3cccnc32)cc1 | 720 |
| O=C(Nc1cccc(F)c1)N1CCCC1c1nc(-c2ccc(F)cc2F)no1 (stereo unspecified) | 998 |
| CCn1cc(C(=O)Nc2ccc(F)cc2)c2cccnc21 | 824 |
| CCN1CCN(C(=O)CN2C(=O)CCCc3cc(S(=O)(=O)N4CCC(C)CC4)ccc32)CC1 | 643 |

| Compound | RP-LC retention time [s] |
| --- | --- |
| Cn1cc(-c2ccncc2)cc1C(=O)N1CCN(c2ccccc2)CC1 | 624 |
| COCC(=O)Nc1ccc(N2CCC(N3CCCCC3)CC2)cc1C(=O)O | 654 |
| Cc1ccc2nc(-c3cccc(Br)c3)c(Nc3ccccc3C)n2c1 | 849 |
| O=C1NCCCCCCN(C(=O)c2ccc3ccccc3n2)[C@H]2C[C@H](C(=O)N3CCc4ccccc4C3)C[C@@H]12 | 896 |
| O=C1NC2(CCN(C(=O)Nc3ccc(F)cc3)CC2)N=C1c1ccc(Cl)cc1 | 890 |
| Nc1ccc2c(c1)N=[N+]([O-])c1cc(N)ccc1C2 | 628 |
| CCOc1cc(C(=O)N2CCCC2c2nc(-c3ccc(OC)cc3)no2)cc(OCC)c1OCC (stereo unspecified) | 1080 |
| Cc1ccc(-c2nnc(-c3nc(N4CCCCC4C)c4ccccc4n3)o2)cc1 (stereo unspecified) | 1260 |
| COC(=O)c1cccc(C(=O)N2CCN(c3cc(C)ccc3C)CC2)n1 | 959 |
| CC1CCN(C(=O)c2ccc3c(c2)CC(=O)N3C)CC1 | 692 |
| Cc1noc(C)c1CC(=O)N1CCCC(c2nnc3n2CCN(C(=O)C2CC2)C3)C1 (stereo unspecified) | 596 |
| Cc1cccc(OCc2nc(-c3cccc(-c4ccnn4C)c3)no2)c1 | 824 |
| CN1C(=O)CO[C@@H](C(=O)N2CCN(c3ccccc3)CC2)[C@@H]1c1ccccc1 | 796 |
| Nc1cc(C2CCN(C(=O)c3ccc(Br)cc3)CC2)no1 | 716 |
| CCOCCCNC(=O)C1CCN(c2nc3cccnc3s2)CC1 | 654 |
| Cc1nn(C)cc1S(=O)(=O)N1CCN(C(=O)c2ccco2)CC1 | 626 |
| CCCCn1c(=O)c2ccccc2n(Cc2nc(-c3ccc(F)c(Br)c3)no2)c1=O | 1320 |
| Cc1nn2c(nnc3c(=O)n(CCc4c[nH]c5ccc(F)cc45)ccc32)c1-c1ccc(F)cc1 | 961 |
| O=C(CF)N(O)c1ccc(/C=C/c2ccccc2)cc1 | 959 |
| CC1CCN(S(=O)(=O)c2ccc3nc(N4CCN(c5ccccc5)CC4)ccc3c2)CC1 | 962 |
| CCC(=O)N1CCCn2nc(-c3ccc(F)cc3)cc2C1 | 741 |
| CCCS(=O)(=O)c1nc2ccc(NS(=O)(=O)c3ccc(Cl)cc3)cc2s1 | 984 |
| Cc1ccc(OCC(O)Cn2c(C3CC3)nc3ccccc32)cc1 (stereo unspecified) | 697 |
| COCCN(C)C(=O)c1cn(C2CN(S(=O)(=O)c3c(C)noc3C)C2)nn1 | 703 |
| O=C(NC1CCCCC1)C1CCN(Cc2cc3ccccc3n2Cc2ccc(Cl)cc2)CC1 | 853 |
| Nc1ccc2c(c1)Cc1cc(Cl)c(Cl)cc1-2 | 963 |
| CCN1C(=O)COc2ccc(-c3csc(NC(=O)c4ccc(OC)cc4)n3)cc21 | 976 |

Now from value to compound:

| RP-LC retention time [s] | Compound |
| --- | --- |
| 557 | O=C(NCc1ccccc1)Nc1cnc2c(c1)CCC2 |
| 871 | CC(C)N1C(=O)c2cccnc2Sc2cc(NC(=O)c3ccccc3Cl)ccc21 |
| 759 | CCC(=O)Nc1nc(-c2ccc3c(c2)NC(=O)C(C)O3)c(C)s1 (stereo unspecified) |
| 812 | COc1ccccc1N1CCN(C[C@@H](C(=O)NC(C)(C)C)c2ccccc2)CC1 |
| 868 | Cc1ccc(C)c(NC(=O)Cn2nc3cc(C)nc(-c4ccccc4)n3c2=O)c1 |
| 792 | COc1ccc(S(=O)(=O)N2C[C@@H]3C[C@H](NC(=O)c4cccs4)[C@H]2C3)cc1Cl |
| 965 | COC(=O)c1nnn(-c2ccc(C)c(Cl)c2)c1C(=O)OC |
| 802 | CC(C)CC(=O)Nc1ccc2c(c1)N(C(=O)c1ccco1)CCC2 |
| 622 | COc1ccc(CC(=O)N2CCC(c3nncn3C(C)C)CC2)cc1 |
| 812 | COc1ccccc1-c1noc(C2CCCN2C(=O)Nc2ccc3c(c2)OCO3)n1 (stereo unspecified) |
| 962 | CCOC(=O)CNC(=O)c1cn(CC)nc1S(=O)(=O)N1CCN(c2ccccc2OCC)CC1 |
| 584 | Cc1nc2scc(C)n2c(=O)c1S(=O)(=O)N1CCN(c2ccccn2)CC1 |
| 759 | COC(=O)c1ccccc1NC(=O)c1cnc2sc(C)cn2c1=O |
| 928 | Cc1ccc(F)cc1S(=O)(=O)NC1CCN(c2ccccc2)C1=O (stereo unspecified) |
| 580 | CNCCCNCc1ccc(-c2ccc(F)c(Cl)c2)o1 |
| 578 | CCCN1CCN(C(=O)CN2CCN(Cc3ccccc3)C2=O)CC1 |
| 566 | CC(C)N(CC#CCNC(=O)Cc1ccccc1Cl)C(C)C |
| 693 | COc1ccc(C(=O)NCc2c(C)noc2C)c(OC)c1 |

| RP-LC retention time [s] | Compound |
| --- | --- |
| 729 | COc1ccc(NC(=O)C2CC2)c2ccccc12 |
| 1260 | Cc1ccccc1NS(=O)(=O)c1cc(-c2nc(C(C)(C)C)cs2)cs1 |
| 553 | C(#Cc1ccccc1)CN1CCN(c2ccccn2)CC1 |
| 797 | COc1ccccc1NC(=O)N1CCCC1c1c(C)noc1C (stereo unspecified) |
| 690 | COCCOCc1nc(C2CCCN2C(=O)c2cccs2)no1 (stereo unspecified) |
| 986 | O=C(CSc1ccccn1)Nc1nc(-c2ccccc2)cs1 |
| 673 | Cc1cccc(CC(=O)N2C[C@@H]3C[C@H]2C[C@@H]3NS(C)(=O)=O)c1 |
| 1000 | COCCn1cc2c3c(cccc31)CN(C(=O)c1ccc(Cl)cc1)CC2 |
| 754 | CSc1ccccc1NC(=O)C(=O)NCC1CCN(C(=O)COc2ccccc2)CC1 |
| 926 | COc1ccccc1NC(=O)c1ccc(NS(=O)(=O)c2cc(C)ccc2C)cc1 |
| 719 | O=C(NCCn1c(=O)n(Cc2ccccc2)c2cccnc21)c1ccccn1 |
| 733 | CC1(C(=O)NCc2ccc(Br)cc2)Oc2cccnc2NC1=O (stereo unspecified) |
| 824 | CCn1c(=O)c(C(=O)NCc2ccccc2F)nc2cccnc21 |
| 1020 | O=C(CN1C(=O)C(C(=O)N2CCCC2)Sc2ccccc21)Nc1cccc(F)c1 (stereo unspecified) |
| 584 | CCC(=O)N1CCN(Cc2nc3cc(NC(=O)C(C)C)ccc3n2C)CC1 |
| 868 | CCCN1C(=O)c2c(C(=O)NCc3ccccc3Cl)ncn2CC1(C)C(=O)NC1CCCC1 (stereo unspecified) |
| 801 | CCOC(=O)c1nc(NCCc2ccc(OCC)c(OCC)c2)c2ccccc2n1 |
| 804 | Cn1cccc1C(=O)NCCn1c(=O)n(Cc2ccc(F)cc2)c2cccnc21 |
